Common to all, as to experiment: Inhibition of in vitro proliferation of tumor cells by compounds (CTG, 6 days)
Common to all, as to format: cell-based

Experiment [1] has as its system NCI-N87 cells. The following applies: small molecule fragments, 6 days of culture, CTG, read-out: NCI-N87 IC50. The gist of the method:
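NCI-N87 cells in RPMI-1640 with 10% FBS, plated and allowed 18 h attachment, then exposed in duplicate to 8 concentrations from 300 nM to 0.1 nM for 6 days at 37 °C, 5% CO2. Viability read by CellTiter-Glo luminescence; IC50 derived from the dose-response.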

Experiment [2] has as its system JIMT-1 cells. The following applies: small molecule fragments, 6 days of culture, CTG, read-out: JIMT-1 IC50. Summed up: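 JIMT-1 cells in RPMI-1640/10% FBS plated at 6×10^4 cells/mL, left 18 h, then exposed to 8 compound concentrations (0.1–300 nM) in duplicate for 6 days at 37° C. Viability by CellTiter-Glo luminescence; IC50 derived.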
Experiment [3] has as its system MDA-MB-231 cells. As to conditions: small molecule fragments, 6 days of culture, CTG, read-out: MDA-MB-231 IC50. How it is done:
To test the inhibitory activity of the pharmaceutical compounds on the in vitro proliferation of NCI-N87, JIMT-1 and MBA-MB-231 tumor cells. The cells were treated with compounds at different concentrations in vitro, and after 6 days of culture, the proliferation of cells was detected using CTG (CellTiter-Glo® Luminescent Cell Viability Assay, Promega, Cat. No. G7558) reagents, and the in vitro activity of the compounds was evaluated according to the IC50 value. • 1. Culturing of cells: NCI-N87/JIMT-1/MBA-MB-231 cells were cultured in RPMI-1640 medium containing 10% FBS. • 2. Preparation of cells: NCI-N87/JIMT-1/MBA-MB-231 cells in logarithmic phase were taken, washed with PBS once, and digested with 2-3 mL of trypsin for 2-3 min. After the cells were digested completely, 10-15 mL of cell culture was added to elute the digested cells. The eluate was centrifuged at 1000 rpm for 5 min, and the supernatant was discarded. The resulting cells were resuspended in 10-20 mL of cell culture to obtain a single cell suspension. • 3. Cell plating: the NCI-N87/JIMT-1/MBA-MB-231 single cell suspension was mixed well and adjusted to a viable cell density of 6×10^4 cells/mL with cell culture. The cell suspension with the adjusted density was mixed well and added to a 96-well cell culture plate at 50 μL/well. The culture plate was incubated in an incubator for 18 h (37° C., 5% CO2). • 4. Preparation of compounds: the compounds were dissolved in DMSO to obtain stock solutions at an initial concentration of 10 mM. There were 8 concentrations in total for the small molecule compounds: 300 nM, 100 nM, 30 nM, 10 nM, 3 nM, 1 nM, 0.3 nM, and 0.1 nM. • 5. Sample adding: the prepared samples to be detected at different concentrations were added to the culture plate, and two duplicate wells were set for each sample. The culture plate was incubated in an incubator for 6 days (37° C., 5% CO2). • 6. Color developing: the 96-well cell culture plate was taken out, added with the CTG reagent at 50 μL/well, and incubated at room temperature for 10 min. • 7. Plate reading: the 96-well cell culture plate was taken out, placed in a microplate reader, and measured for the chemiluminescence using the microplate reader. Data analysis: data were processed and analyzed using Microsoft Excel and Graphpad Prism 5.

Where [4] appears, read: Homo sapiens, NCI-N87, 144 h, Table 1, Test Example 2.1.
Where [5] appears, read: Homo sapiens, NCI-N87, 144 h, Table 2 (untitled), Test Example 2.2.
Setting [6] is: Table 2 (untitled), Test Example 2.2.
[7] abbreviates: Homo sapiens, MDA-MB-231, 144 h, Table 2 (untitled), Test Example 2.2.
Setting [8] is: Homo sapiens, JIMT-1, 144 h, Table 1, Test Example 2.1.
Where [9] appears, read: Homo sapiens, JIMT-1, 144 h, Table 2 (untitled), Test Example 2.2.

Each structure is given as a SMILES string. Where two headings read alike, the source gives them in different places.

As to `CC[C@@]1(O)C(=O)OCc2c1cc1n(c2=O)Cc2c-1nc1cc(F)c(C)c3c1c2[C@@H](NC(=O)C1CCC(O)CC1)CC3` (single isomer, unassigned) [P-II-1], the IC50 in experiment [1] (setting [4]) was 18.5 nM; in experiment [1] (setting [5]) it was 18.5 nM; in experiment [2] (Table 1, Test Example 2.1), 8.47 nM; in experiment [2] (setting [6]), 8.5 nM; in experiment [3] (setting [7]), 12.9 nM.

Turning to `CC[C@@]1(O)C(=O)OCc2c1cc1n(c2=O)Cc2c-1nc1cc(F)c(C)c3c1c2[C@@H](NC(=O)C1CCC(O)CC1)CC3` (single isomer, unassigned) [P-II-2], the IC50 turned out to be 22.1 nM in experiment [1] (Table 1, Test Example 2.1); 22.1 nM in experiment [1] (setting [6]); 17 nM in experiment [2] (Table 1, Test Example 2.1); 17.2 nM in experiment [2] (setting [6]); 19.3 nM in experiment [3] (setting [6]).

`CC[C@@]1(O)C(=O)OCc2c1cc1n(c2=O)Cc2c-1nc1cc(F)c(C)c3c1c2[C@@H](NC(=O)[C@H]1C[C@@H](O)C1)CC3` [P-II-3, (1s,3R)-N-((1S,9S)-9-ethyl-5-fluoro-9-hydroxy-4-methyl-10,13-dioxo-2,3,9,10,13,15-hexahydro-1H,12H-benzo[de]pyrano[3′,4′:6,7]indolizino[1,2-b]quinolin-1-yl)-3-hydroxycyclobutane-1-carboxamide]: the IC50 was 9.56 nM in experiment [1] (setting [4]); 9.56 nM in experiment [1] (setting [5]); 5 nM in experiment [2] (setting [8]); 5 nM in experiment [2] (setting [9]); 9.4 nM in experiment [3] (setting [7]).

Regarding `CC[C@@]1(O)C(=O)OCc2c1cc1n(c2=O)Cc2c-1nc1cc(F)c(C)c3c1c2[C@@H](NC(=O)[C@H]1C[C@H](O)C1)CC3` [P-II-4, (1r,3S)-N-((1S,9S)-9-ethyl-5-fluoro-9-hydroxy-4-methyl-10,13-dioxo-2,3,9,10,13,15-hexahydro-1H,12H-benzo[de]pyrano[3′,4′:6,7]indolizino[1,2-b]quinolin-1-yl)-3-hydroxycyclobutane-1-carboxamide], the IC50 in experiment [1] (setting [4]) was determined as 8.03 nM; in experiment [1] (setting [5]), 8.03 nM; in experiment [2] (setting [8]), 6.64 nM; in experiment [2] (setting [9]) it was 6.6 nM; in experiment [3] (setting [7]) it was 7.6 nM.

As for `CC[C@@]1(O)C(=O)OCc2c1cc1n(c2=O)Cc2c-1nc1cc(F)c(C)c3c1c2[C@@H](NC(=O)C[C@@H](C)O)CC3` [P-III-20, (R)—N-((1S,9S)-9-ethyl-5-fluoro-9-hydroxy-4-methyl-10,13-dioxo-2,3,9,10,13,15-hexahydro-1H,12H-benzo[de]pyrano[3′,4′: 6,7]indolizino[1,2-b]quinolin-1-yl)-3-hydroxybutanamide], the IC50 in experiment [1] (setting [4]) was determined as 5.89 nM; in experiment [1] (Homo sapiens, NCI-N87, 144 h, Table 3, Test Example 2.3), 5.89 nM; in experiment [1] (Homo sapiens, NCI-N87, 144 h, Table 4, Test Example 2.4), 5.9 nM; in experiment [2] (setting [8]), 4.35 nM; in experiment [2] (Homo sapiens, JIMT-1, 144 h, Table 3, Test Example 2.3), 4.35 nM; in experiment [3] (Homo sapiens, MDA-MB-231, 144 h, Table 3, Test Example 2.3), 6.65 nM.

The IC50 is the point on the concentration scale where inhibition reaches its midpoint.
